Counter-ions that a name gives are not always drawn. Ends that are not written are not given here. Peptide text beside a SMILES is read from it. * marks the point of attachment. DW‑8089 = (1S,9S)-1-amino-9-ethyl-2,3-dihydro-9-hydroxy-1H,12H-benzo[de]pyrano[3',4':6,7]indolizino[1,2-b]quinoline-10,13(9H,15H)-dione, CC[C@@]1(O)C(=O)OCc2c1cc1n(c2=O)Cc2c-1nc1cccc3c1c2[C@@H](N*)CC3; Exatecan = CC[C@@]1(O)C(=O)OCc2c1cc1n(c2=O)Cc2c-1nc1cc(F)c(C)c3c1c2[C@@H](N*)CC3
Key:
[1] = tested on: Walker 256 tumor-bearing rats; assay: Releasing rate of spacers judged from efficacy of doxorubicin drug complexes or free doxorubicin at tumorous sites; type: in vivo, rat; conditions: for releasing rate of spacer: drug complexes bound with doxorubicin, Walker 256 tumor-bearing rats
From the text: Specific examples of the spacer are shown in the following table; however, the spacer used for the method for preparing the drug complexes of the present invention is not limited to those mentioned below, and it can be readily understood that one of ordinary skilled in the art can appropriately choose a spacer so as to achieve an optimum releasing rate of a drug compound. In the table, the left ends of peptide sequences are N-terminuses and the residues of drug compounds are bound to C-terminuses.D-Phe represents a D-phenylalanine residue and the other amino acids represent L-amino acids. The degrees of the releasing rate were judged from the degree of appearance of efficacy of the drug complexes bound with doxorubicin against Walker 256 tumor-bearing rats, or from the free doxorubicin concentration at tumorous sites of Walker 256 tumor-bearing rats.

[2] = tested on: Meth A tumor-bearing mice; assay: Antitumor activity, Meth A tumor-bearing mice, single administration on day 7; type: in vivo, mouse; conditions: for Inhibition rate: calculated based on the drug compound; for antitumor activity (in words) / effective dose-range (in words): single administration, compared to the drug compound, per se
Procedure: (§1) Meth A tumor-bearing mice were prepared (7 mice per group) by subcutaneously transplanting 1×10^6 mouse fibrosarcoma Meth A cells into the right inguinal regions of BALB/c male mice (7-week old). On day 7, the drug complex of Example 9 dissolved in distilled water for injection was injected in the tail vein of the Meth A tumor-bearing mice every 4 days 4 times. On day 21 after the transplantation, tumor masses were excised and weighed to calculate the inhibition rate of tumor growth according to the following equation: inhibition rate of tumor growth (%)=[1-(average tumor weight of the group administered with the test sample/average tumor weight of control group)]×100.
Meth A tumor-bearing mice (6 mice per group) were prepared according to a similar manner to that of Example 11 and the antitumor activity was compared to that obtained by single administration of the drug complexes of Examples 8 and 9 once on day 7.
(§2) Meth A tumor-bearing mice (6 mice per group) were prepared according to a similar manner to that of Example 11 and the antitumor activity of the drug complex of Example 15 was examined by single administration in a similar manner to that of Example 12.
as §2, with “1,” for “11”, “41” for “15”, “in the cases of” for “by”, “12, and its antitumor activity was compared to that of the drug compound, per se.” for “12.”
Meth A tumor-bearing mice (6 mice per group) were prepared according to a similar manner to that of Example 11, and the antitumor activity was examined according to a similar method to that in Example 12 by single administration of the drug complexes of Examples 29, 43, and 44, respectively.

[3] = tested on: Meth A tumor-bearing mice; assay: Antitumor activity, Meth A tumor-bearing mice, i.v. every 4 days 4 times; type: in vivo, mouse; conditions: Example 11, every 4 days 4 times
Procedure: as §1

[4] = Example 56 (table 8), 20 mg/kg single
[5] = Example 56 (table 8), 40 mg/kg single
[6] = Example 56 (table 8), 80 mg/kg single
[7] = Example 56 (table 8), 100 mg/kg single

-Tyr-Gly-
releasing rate of spacer [1]: high releasing rate

Carboxymethyldextran Polyalcohol-Gly-Gly-Gly-Phe-NH--A' (A--NH2 =DX-8951) [Example 8] ({carboxymethyldextran polyalcohol}-GGGF-Exatecan; also: N-terminus linked to carboxymethyldextran polyalcohol, C-terminus amide-linked to drug residue A' (DX-8951))
Inhibition rate ([2]; Example 12 (Table 3), 5 mg/kg single): 76% | Inhibition rate ([2]; Example 12 (Table 3), 10 mg/kg single): 85% | antitumor activity (in words) [2]: (Polysaccharide derivative)-Gly-Gly-Gly-Phe-NH--A'> the drug compound, per se

-Gly-Phe-
releasing rate of spacer [1]: low releasing rate

-Gly-Gly-Gly-
releasing rate of spacer [1]: low releasing rate

CC[C@@]1(O)C(=O)OCc2c1cc1n(c2=O)Cc2c-1nc1cc(F)c(C)c3c1c2[C@@H](NC(=O)CNC(=O)[C@H](Cc1ccccc1)NC(=O)CNC(=O)CN)CC3 [H)N-Gly-Gly-Phe-Gly-NH--A, 3'-N-(Gly-Gly-Phe-Gly)-NH--A (A--NH2 =DX-8951) Trifluoroacetic Acid Salt] (H-GGFG-Exatecan)
antitumor activity (in words) [3]: not effective

-Phe-Phe-Gly-Gly-: spacer of drug complexes bound with doxorubicin (FFGG; not fully specified; printed as -Phe-Phe-Gly-Gly-; also: spacer between polysaccharide derivative and drug in drug complex)
releasing rate of spacer [1]: high releasing rate

-Gly-Gly-Phe-Gly-: spacer of drug complexes bound with doxorubicin (GGFG; not fully specified; printed as -Gly-Gly-Phe-Gly-; also: spacer between polysaccharide derivative and drug in drug complex)
releasing rate of spacer [1]: high releasing rate | release of the drug compound (in words) ([1]; spacer for doxorubicin): can release the drug compound at high concentration in a short time

Carboxymethyldextran Polyalcohol-Gly-Gly-Gly-Phe-NH--A' (A--NH2 =)X-8951) ({carboxymethyldextran polyalcohol}-GGGF-Exatecan; also: N-terminus linked to carboxymethyldextran polyalcohol, C-terminus amide-linked to drug residue A' (DX-8951)) [Example 43]
Inhibition rate [2, 4]: 75% | Inhibition rate [2, 5]: 82% | Inhibition rate [2, 6]: 92% | Inhibition rate [2, 7]: 94% | antitumor activity (in words) [2]: high antitumor activity | effective dose-range (in words) [2]: broader effective dose-range

α-methylcarboxymethyldextran Polyalcohol-Gly-Gly-Gly-Phe-NH--A' (A--NH2 =DX-8951) [Example 44]
Inhibition rate [2, 4]: 75% | Inhibition rate [2, 5]: 97% | Inhibition rate [2, 6]: 94% | Inhibition rate [2, 7]: 96% | antitumor activity (in words) [2]: high antitumor activity | effective dose-range (in words) [2]: broader effective dose-range

-Phe-Gly-
releasing rate of spacer [1]: high releasing rate

-Phe-Gly-Gly-Gly-: spacer of drug complexes bound with doxorubicin (FGGG; not fully specified; printed as -Phe-Gly-Gly-Gly-; also: spacer between polysaccharide derivative and drug in drug complex)
releasing rate of spacer [1]: high releasing rate

-Gly-Gly-Gly-Phe-: spacer of drug complexes bound with doxorubicin (GGGF; not fully specified; printed as -Gly-Gly-Gly-Phe-; also: spacer between polysaccharide derivative and drug in drug complex)
releasing rate of spacer [1]: relatively low releasing rate

Carboxymethyldextran Polyalcohol-Gly-Gly-Gly-Phe-NH--A' (A--NH2 =DX-8951) [Example 29] ({carboxymethyldextran polyalcohol}-GGGF-Exatecan; also: N-terminus linked to carboxymethyldextran polyalcohol, C-terminus amide-linked to drug residue A' (DX-8951))
Inhibition rate ([2]; Example 56 (table 8), 5 mg/kg single): 79% | Inhibition rate ([2]; Example 56 (table 8), 10 mg/kg single): 89% | Inhibition rate [2, 4]: 99% | Inhibition rate ([2]; Example 56 (table 8), 30 mg/kg single): 99% | antitumor activity (in words) [2]: high antitumor activity | effective dose-range (in words) [2]: broader effective dose-range

-Ser-Gly-
releasing rate of spacer [1]: low releasing rate

-Gly-Gly-Gly-Gly-: spacer of drug complexes bound with doxorubicin (GGGG; not fully specified; printed as -Gly-Gly-Gly-Gly-; also: spacer between polysaccharide derivative and drug in drug complex)
releasing rate of spacer [1]: low releasing rate

-Gly-Gly-Gly-Gly-Gly-Gly-: spacer of drug complexes bound with doxorubicin
releasing rate of spacer [1]: relatively high releasing rate

-Gly-Phe-Gly-Gly-: spacer of drug complexes bound with doxorubicin (GFGG; not fully specified; printed as -Gly-Phe-Gly-Gly-; also: spacer between polysaccharide derivative and drug in drug complex)
releasing rate of spacer [1]: high releasing rate

-Gly-Gly-Gly-Phe-Gly-: spacer of drug complexes bound with doxorubicin (GGGFG; not fully specified; printed as -Gly-Gly-Gly-Phe-Gly-; also: spacer between polysaccharide derivative and drug in drug complex)
releasing rate of spacer [1]: high releasing rate

Carboxymethyldextran Polyalcohol-Gly-Gly-Phe-Gly-NH--A' (A--NH2 =DW-8089) ({carboxymethyldextran polyalcohol}-GGFG-{DW‑8089}; also: N-terminus linked to carboxymethyldextran polyalcohol, C-terminus amide-linked to drug residue A' (DW-8089)) [Example 41]
Inhibition rate ([2]; Example 55 (table 7), 3.125 mg/kg single): 61% | Inhibition rate ([2]; Example 55 (table 7), 6.25 mg/kg single): 81% | Inhibition rate ([2]; Example 55 (table 7), 12.5 mg/kg single): 95% | Inhibition rate ([2]; Example 55 (table 7), 25 mg/kg single): 99% | antitumor activity (in words) [2]: remarkably enhanced antitumor activity | effective dose-range (in words) [2]: broader effective dose-range

-Gly-Gly-Phe-Phe-: spacer of drug complexes bound with doxorubicin (GGFF; not fully specified; printed as -Gly-Gly-Phe-Phe-; also: spacer between polysaccharide derivative and drug in drug complex)
releasing rate of spacer [1]: relatively high releasing rate

-Gly-Gly-
releasing rate of spacer [1]: low releasing rate

-Pro-Gly-
releasing rate of spacer [1]: relatively low releasing rate

-Leu-Gly-
releasing rate of spacer [1]: high releasing rate

-Phe-Phe-
releasing rate of spacer [1]: relatively low releasing rate

-Ala-Gly-
releasing rate of spacer [1]: relatively low releasing rate
